In US12427212B2, “Nectin-4 binding miniproteins, conjugates and uses thereof” (Aktis Oncology, Inc., priority 2023, dated 2025) one finds tissue uptake, Kd and half-life data, which are given here for 4 compounds.

Bridges are numbered along the chain shown (N, C = ends). [ ]: non-standard residue; d: D form. The star is where a group is joined. DOTA = O=C(O)CN1CCN(CC(=O)O)CCN(CC(=O)*)CCN(CC(=O)O)CC1; Arg(Me2s) = CN=C(NC)NCCC[C@H](N)C(=O)O; PEG4 = NCCOCCOCCOCCOCCC(=O)O

The nature of series [1]: In vivo biodistribution of 111In-labeled miniproteins by SPECT/CT, HT-1376 xenograft. As to conditions: female, athymic nude, mouse, in vivo. Also noted: species or system mouse. An excerpt:
HT-1376 is a human cell line that expresses Nectin-4.
Humane endpoints: All animals were euthanized following the final imaging time point and carcasses were discarded according to IACUC protocols.
Image Processing: Images were generated as SPECT/CT pairs with the SPECT reported in units of activity.
Image generation: After the preprocessing described in A, individual maximum intensity projections (MIPs) were created with VivoQuant software for each subject at each time point and scaled in percent injected dose per gram (% ID/g). The CT for each image was windowed from −500 to 4500 Hounsfield Units (HU). The SPECT was windowed at various ranges to highlight different regions of uptake. Images were then stitched together using Image Magick based python tools to create montages of subjects over time and time points over groups.

Series [2] concerns the target T1, Nectin-4 (Homo sapiens, UniProt Q96NY8).
T1 sequence (Q96NY8 32-510): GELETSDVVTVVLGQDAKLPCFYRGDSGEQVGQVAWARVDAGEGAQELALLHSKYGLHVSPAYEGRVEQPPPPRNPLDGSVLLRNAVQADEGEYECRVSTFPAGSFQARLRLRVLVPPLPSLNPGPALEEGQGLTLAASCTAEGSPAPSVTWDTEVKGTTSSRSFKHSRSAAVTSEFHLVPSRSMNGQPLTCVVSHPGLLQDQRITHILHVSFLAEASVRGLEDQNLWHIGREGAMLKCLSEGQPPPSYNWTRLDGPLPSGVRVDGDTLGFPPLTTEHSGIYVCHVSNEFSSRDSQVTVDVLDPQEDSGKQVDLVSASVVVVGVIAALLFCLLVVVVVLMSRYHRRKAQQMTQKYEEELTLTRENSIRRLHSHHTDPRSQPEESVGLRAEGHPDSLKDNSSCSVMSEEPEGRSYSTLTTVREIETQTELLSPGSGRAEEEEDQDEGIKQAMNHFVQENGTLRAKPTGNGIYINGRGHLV
Put plainly: DELFIA whole cell binding assay, equilibrium binding affinity (KD), Table 2B. As to conditions: Table 2B, binding to Nectin-4; read-out: Binding Affinity (KD). The protocol: A whole cell binding assay was used to estimate the equilibrium binding affinity (KD) or binding inhibition constant (Ki) of miniprotein ligands to cells expressing a target of interest. Cells were dispensed into a 384-well plate and incubated at 37° C., in 5% CO2 overnight. The next day cells were gently washed once in assay buffer prior to addition of europium chelated ligand. For KD determination, a miniprotein conjugated with europium chelate (DOTA or DTPA) in the presence or absence of 100-fold excess un-conjugated ligand was incubated with cells over 12 different concentrations ranging from 100 times below and above expected KD values. For Ki determination, a single concentration (KD equivalent concentration) of europium-chelate miniprotein was added to each well followed immediately by the addition of unconjugated competing ligand over 12 different concentrations ranging from 100 times below and above expected Ki values as before. The plate was incubated for 1.5 h at room temperature to reach binding equilibrium. Cells were then washed three times at room temperature with 1×PBS followed by the addition of 2 M HCl and incubated for two h at 37° C. Following this step, 2 M NaOH and fluorescent inducer solution were added to each well and incubated for 30 minutes at room temperature according to the manufacturer's protocol (Perkin-ELMER DELFIA assay). Plates were read on an Envision plate reader and a curve-fitting model was applied to estimate KD and Ki values using GraphPad Prism software. Mean DELFIA K; values for exemplary miniproteins are recorded in TABLE 9A.

Series [3] in a line: In vitro metabolic stability in serum/plasma (percent parent remaining, LC-MS). The series is classed as in vitro ADME. The settings on record: mouse. As for the experimental part:
Exemplary miniproteins were spiked into biological matrices at initial concentration between 1-2 μM. Tested matrices were varied by species (mouse, rat, human) and type (plasma, serum, and kidney brush border membrane (kBBM) preparations tested each from 0.625-100 μg/mL protein content). Tested conditions were incubated with miniproteins at 37° C. for 4 h. At collection points of 0, 15, 30, 60, 120, 240 minutes, 50 μL of each condition were quenched by organic solvent (methanol or acetonitrile) or the addition of 4% phosphoric acid solution followed by solid-phase extraction. Fractions of each quenched timepoint were subsequently assayed for parent miniproteins concentration by high resolution LC-MS. Percent-parent-remaining-time plots were constructed from the ratio of each given time collection to the time-zero parent miniprotein. Percent-parent-remaining in mouse serum and plasma for exemplary miniproteins are recorded in TABLE 11.

Usually tissue uptake stands for the percentage of the injected dose found per gram of tissue. A lower tissue uptake goes with low uptake. A word on the Kd: it is a measure of binding affinity in units of concentration. In series [1], `CC[C@H](C)[C@@H]1NC(=O)CNC(=O)[C@@H]2CCCN2C(=O)[C@H](CC(C)C)NC(=O)[C@H](Cc2ccc(O)cc2)NC(=O)[C@H](CC(N)=O)NC(=O)[C@H](Cc2ccccc2)NC(=O)[C@H](C)NC(=O)[C@H](CCC(N)=O)NC(=O)[C@H](CCC(N)=O)NC(=O)[C@H]([C@@H](C)CC)NC(=O)[C@H](Cc2ccc(O)cc2)NC(=O)[C@H](Cc2ccc(O)cc2)NC(=O)[C@@H]2CSSC[C@@H](C(=O)O)NC(=O)CNC(=O)[C@H](CC(C)C)NC(=O)[C@H](CC(N)=O)NC(=O)[C@H](CC(=O)O)NC(=O)[C@H](CC(C)C)NC(=O)[C@H]([C@@H](C)CC)NC(=O)[C@H](CCC(=O)O)NC(=O)[C@H](CCC(=O)O)NC(=O)[C@H]([C@@H](C)CC)NC(=O)[C@H](CSSC[C@H](NC(C)=O)C(=O)N[C@@H](CCC(=O)O)C(=O)N[C@@H](Cc3ccc(O)cc3)C(=O)N[C@@H](CC(=O)O)C(=O)N[C@@H](CCC(=O)O)C(=O)N[C@@H](CCC(=O)O)C(=O)N[C@@H](Cc3ccccc3)C(=O)N[C@@H](Cc3ccccc3)C(=O)N[C@@H]([C@@H](C)O)C(=O)N[C@@H](C)C(=O)N[C@@H](CC(C)C)C(=O)N[C@@H](CCCCN)C(=O)N[C@@H](CCCCN)C(=O)N[C@@H](CC(C)C)C(=O)N[C@@H](CCCNC(=N)N)C(=O)NCC(=O)NCC(=O)N[C@@H](CC(=O)O)C(=O)N[C@@H]([C@@H](C)CC)C(=O)N2)NC1=O` [Compound C104] returned a tissue uptake at 4 h of 69.6 %ID/g and a tissue uptake at 24 h of 40.6 %ID/g. The Kd in series [2] was found to be 3.7 nM.

For orientation: half-life means how long it takes for the measured level to halve. `CC[C@H](C)[C@@H]1NC(=O)[C@H](Cc2ccc(O)cc2)NC(=O)[C@H](CC(=O)O)NC(=O)[C@@H]2CSSC[C@@H](C(=O)N[C@@H](CO)C(=O)O)NC(=O)CNC(=O)[C@H](CC(C)C)NC(=O)[C@H](CC(N)=O)NC(=O)[C@H](CC(=O)O)NC(=O)[C@H](CC(C)C)NC(=O)[C@H]([C@@H](C)CC)NC(=O)[C@H](CCC(=O)O)NC(=O)[C@H](CCC(=O)O)NC(=O)[C@H]([C@@H](C)CC)NC(=O)[C@H](CSSC[C@H](NC(=O)CCOCCOCCOCCOCCNC(=O)CN3CCN(CC(=O)O)CCN(CC(=O)O)CCN(CC(=O)O)CC3)C(=O)N[C@@H](CCC(=O)O)C(=O)N[C@@H](Cc3ccc(O)cc3)C(=O)N[C@@H](CC(=O)O)C(=O)N[C@@H](CCC(=O)O)C(=O)N[C@@H](CCC(N)=O)C(=O)N[C@@H](Cc3ccccc3)C(=O)N[C@@H](Cc3ccccc3)C(=O)N[C@@H]([C@@H](C)O)C(=O)N[C@@H](C)C(=O)N[C@@H](CC(C)C)C(=O)N[C@@H](CCCCN)C(=O)N[C@@H](CCCNC(=N)N)C(=O)N[C@@H](CC(C)C)C(=O)N[C@@H](CCCNC(=N)N)C(=O)NCC(=O)N[C@@H](CC(=O)O)C(=O)N[C@@H](CC(=O)O)C(=O)N[C@@H]([C@@H](C)CC)C(=O)N2)NC(=O)[C@H](CC(C)C)NC(=O)CNC(=O)[C@@H]2CCCN2C(=O)[C@H](CC(C)C)NC(=O)[C@H](Cc2ccc(O)cc2)NC(=O)[C@H](CCC(N)=O)NC(=O)[C@H](Cc2ccccc2)NC(=O)[C@H](CO)NC(=O)[C@H](C)NC(=O)[C@H](CCC(N)=O)NC1=O` [Compound C236] had a tissue uptake at 4 h in series [1] of 65.1 %ID/g. The tissue uptake at 24 h in series [1] was found to be 42.1 %ID/g. The half-life in series [3] and in series [3] (plasma) was more than 12 h throughout.

As to “{DOTA-PEG4}-CEYDEQFFTALARLRGGDICEYIQARFQYLPGLCIEEILDNLGCS-OH (disulfide 1-34, 20-44 (inferred)) [Compound C265]”, the half-life in series [3] and in series [3] (plasma) was more than 12 h throughout.

With “{DOTA-PEG4}-CEYDEQFFTALARLRGGDICEYIQA[Arg(Me2s)]FQYLPGLCIEEILDNLGCS-OH (disulfide 1-34, 20-44 (inferred)) [Compound C268]”, the half-life in series [3] and in series [3] (plasma) was more than 12 h throughout.
